According to US12213957B2, “Use of aminoacetonitrile compounds for the treatment of infection and disease” (PITNEY PHARMACEUTICALS PTY LIMITED, priority 2020, dated 2025):
“And” between values parts separate entries of the source, which are not always exact repeats. Identical values can stand only once. Like-named read-outs stand apart in the source and are kept apart here.

Key:
[1] = Blood plasma levels in pet dogs of the veterinary trial; type: in vivo, dog; conditions: plasma, oral, 179 mg/kg bw; dog 003-001 that achieved a partial response; read-out: monepantel blood plasma level
Description: In a Phase 2 veterinary clinical trial, monepantel was administered as tablets daily to six pet dog patients (dog identification numbers: 001-001, 001-002, 001-003, 003-001, 004-002 and 004-003) with treatment naïve B cell lymphoma at a target dose of 179 mg/kg bw. Superficial tumour lesions were measured with calipers, while lesions within the body were assessed by X-Ray, ultrasound, computer tomography (CT) and/or physical palpitation. Baseline Day 0 (D0) predose caliper, X-Ray, ultrasound and CT measurements where available as well as a complete physical examination were recorded.
An inverse correlation between RECIST1.1 response and blood plasma levels of monepantel and monepantel sulfone was evident. The one dog (003-001) that achieved a partial response, recorded monepantel and […] of 0.1 and 6.7 μM, respectively.

VERO cells [2] = experiment: cells; conditions: Chlorocebus sabaeus, 120 h, read-out: 1050 (estimated from the 8 μM and 40 μM values)
VERO cells [3] = tested on: VERO cells
[4] = tested on: treatment naïve B cell lymphoma; experiment: Phase 2 veterinary clinical trial, RECIST 1.1 tumour response; type: in vivo, dog
Description: Superficial tumour lesions were measured with calipers, while lesions within the body were assessed by X-Ray, ultrasound, computer tomography (CT) and/or physical palpitation. Baseline Day 0 (D0) predose caliper, X-Ray, ultrasound and CT measurements where available as well as a complete physical examination were recorded.

SARS-CoV-2 [5] = type: cell-based; conditions: 0.032 μM and 0.064 μM compared to 40 μM and 8 μM values, p<0.05 and <0.001
SARS-CoV-2 [6] = type: cell-based; conditions: VERO cells
[7] = tested on: VERO cells infected with SARS-CoV-2; type: cell-based; conditions: approximately 5 μM MPL
[8] = Blood plasma levels in human patients; type: in vivo; conditions: monepantel as Zolvix 5 mg/kg bw daily
Description: (§1) In a Phase 1 b clinical trial, monepantel administered as Zolvix daily to four human patients (PA02, PA04, PA06 and PA07) at 5 mg/kg bw provided an anticancer effect by computerised tomography (CT) scanning according to RECIST1.1 criteria. […] Evidence of mTOR pathway signalling inhibition in these patients was supported by the finding of decreased eurkaryotic translation initiation factor 4E-binding protein 1 (EIF-4EBP1) phosphorylation levels from the preparations of PBMCs from PA02, PA04 and PA06 (FIG. 1B). EIF-4EIBP1 phosphorylation levels were not assayed from preparations of PBMCs from PA07.
Blood plasma monepantel and monepantel sulfone levels of all four patients were recorded at intervals throughout treatment (Table 2).

[9] = tested on: ribosomal protein S6 kinase beta-1 (RPS6KB1); experiment: RPS6KB1 phosphorylation levels in patients' PBMCs (mTOR signalling); type: in vivo, human; conditions: 5 mg/kg bw daily
[10] = tested on: eurkaryotic translation initiation factor 4E-binding protein 1 (EIF-4EBP1); experiment: EIF-4EBP1 phosphorylation levels in patients' PBMCs (mTOR signalling); type: in vivo, human; conditions: 5 mg/kg bw daily
Description: as §1

cancer = experiment: Phase 1b clinical trial, RECIST1.1 by computerised tomography; type: in vivo, human; conditions: monepantel as Zolvix daily 5 mg/kg bw
Description: as §1

SARS-CoV-2 [11] = type: cell-based; conditions: Calu-3 human cells, concentrations from 3.00 μM down to 0.013 μM
[12] = pet dogs, monepantel tablets daily, target dose 179 mg/kg bw, one value per dog, 179 mg/kg
[13] = six pet dogs, tablets daily, 179 mg/kg bw
[14] = PA02, after three days of treatment
[15] = PA04, after three days of treatment
[16] = PA06, after three days of treatment

## C[C@](C#N)(COc1cc(C#N)ccc1C(F)(F)F)NC(=O)c1ccc(SC(F)(F)F)cc1 [MPL, N-[(1S)-1-Cyano-2-(5-cyano-2-trifluoromethyl-phenoxy)-1-methyl-ethyl]-4-trifluoromethylsulfanyl-benzamide]
[1]
  concentration at 14 day: 100 nM
VERO cells [2]
  IC50: ~30 µM
VERO cells [3]
  effect upon SARS-CoV-2 infected VERO cells (LDH): no apparent effect
  toxicity caused by SARS-CoV-2: appeared to increase toxicity
  toxicity to Vero cells (LDH): significant toxicity
  toxicity to uninfected VERO cells: some toxicity
VERO cells [3]; African green monkey
  SARS-CoV-2 toxicity: does not apparently increase SARS-CoV-2 toxicity
[4]; [12]
  RECIST 1.1 tumour response D14 Target Lesions: PR (PR = partial response)
  RECIST 1.1 tumour response Overall: PR (PR = partial response)
[4]; pet dogs, tablets daily, 179 mg/kg bw
  target superficial lymph node caliper measurements at D28: four of four dogs achieving stable target superficial lymph node caliper measurements
[4]; [13]
  RECIST 1.1 responses of the six dogs at D14: One dog achieved a partial response, four dogs achieved stable disease and one dog had progressive disease
  anti-cancer effect at D14: strong anti-cancer effect
SARS-CoV-2 [5]
  SARS-CoV-2 RNA concentrations in the media (qPCR): significantly decrease
SARS-CoV-2 [6]; MPL 0.064 μM
  SARS-CoV-2 infectivity (TCID50) compared to no treatment: significantly reduces SARS-CoV-2 infectivity
SARS-CoV-2 [6]; MPL 0.137 μM (greatest effect)
  SARS-CoV-2 infectivity (TCID50, repeat experiment) compared to no treatment: significantly reduces SARS-CoV-2 infectivity
SARS-CoV-2 [6]; MPL 0.411 μM and 0.046 μM
  SARS-CoV-2 infectivity (TCID50, repeat experiment): significantly reduced SARS-CoV-2 infectivity
SARS-CoV-2 [6]; MPL 0.32, 1.6 and 8.0 μM
  SARS-CoV-2 infectivity (TCID50): did not significantly reduce
[7]
  protection against cell death following infection with SARS-CoV-2: protected VERO cell against cell death
[8]; 0.25 h, average of patients
  Blood plasma level of monepantel, Average: 0.010 ∞M
[8]; 0.25 h, individual patients
  Blood plasma level of monepantel: 6.46 ng/ml and 0 ng/ml (2×) and 12.2 ng/ml
[8]; 0.5 h, average of patients
  Blood plasma level of monepantel, Average: 0.051 ∞M
[8]; 0.5 h, individual patients
  Blood plasma level of monepantel: 39.4 ng/mL and 16.1 ng/mL and 10.5 ng/mL and 31 ng/mL
[8]; 1 h, average of patients
  Blood plasma level of monepantel, Average: 0.137 ∞M
[8]; 1 h, individual patients
  Blood plasma level of monepantel: 110 ng/mL and 46.2 ng/mL and 42.1 ng/mL and 61 ng/mL
[8]; 2 h, average of patients
  Blood plasma level of monepantel, Average: 0.298 ∞M
[8]; 2 h, individual patients
  Blood plasma level of monepantel: 99.1 ng/mL and 171 ng/mL and 112 ng/mL
[8]; 4 h, average of patients
  Blood plasma level of monepantel, Average: 0.353 ∞M
[8]; 4 h, individual patients
  Blood plasma level of monepantel: 104 ng/mL and 234 ng/mL and 144 ng/mL and 187 ng/mL
[8]; 8 h, average of patients
  Blood plasma level of monepantel, Average: 0.145 ∞M
[8]; 8 h, individual patients
  Blood plasma level of monepantel: 62.1 ng/mL and 63.6 ng/mL and 108 ng/mL and 40.2 ng/mL
[8]; 12 h, average of patients
  Blood plasma level of monepantel, Average: 0.064 ∞M
[8]; 12 h, individual patients
  Blood plasma level of monepantel: 26.9 ng/mL and 24.1 ng/mL and 52.5 ng/mL and 18.6 ng/mL
[8]; 24 h, average of patients
  Blood plasma level of monepantel, Average: 0.030 ∞M
[8]; 24 h, individual patients
  Blood plasma level of monepantel: 13.7 ng/mL and 11.6 ng/mL and 21.8 ng/mL and 9.95 ng/mL
[8]; pre-dose D3, average of patients
  Blood plasma level of monepantel, Average: 10.7 ng/ml and 0.023 ∞M
[8]; pre-dose D3, individual patients
  Blood plasma level of monepantel: 16.4 ng/mL and 8.07 ng/mL and 9.99 ng/mL and 8.33 ng/mL
[8]; pre-dose D4, average of patients
  Blood plasma level of monepantel, Average: 9.2 ng/ml and 0.019 ∞M
[8]; pre-dose D4, individual patients
  Blood plasma level of monepantel: 14.7 ng/mL and 6.98 ng/mL and 8.65 ng/mL and 6.44 ng/mL
[8]; pre-dose D5, average of patients
  Blood plasma level of monepantel, Average: 6.9 ng/ml and 0.015 ∞M
[8]; pre-dose D5, individual patients
  Blood plasma level of monepantel: 9.94 ng/mL and 6.86 ng/mL and 5.72 ng/mL and 5.03 ng/mL
[8]; pre-dose D6, average of patients
  Blood plasma level of monepantel, Average: 6.3 ng/ml and 0.013 ∞M
[8]; pre-dose D6, individual patients
  Blood plasma level of monepantel: 9.99 ng/mL and 7.22 ng/mL and 4.62 ng/mL and 3.34 ng/mL
[8]; pre-dose D7, average of patients
  Blood plasma level of monepantel, Average: 5.4 ng/ml and 0.011 ∞M
[8]; pre-dose D7, individual patients
  Blood plasma level of monepantel: 7.42 ng/mL and 6.39 ng/mL and 4.58 ng/mL and 3.32 ng/mL
[8]; pre-dose D14, average of patients
  Blood plasma level of monepantel, Average: 4.4 ng/ml and 0.009 ∞M
[8]; pre-dose D14, individual patients
  Blood plasma level of monepantel: 4.85 ng/mL and 5.25 ng/mL and 3.23 ng/mL
[8]; pre-dose D21, average of patients
  Blood plasma level of monepantel, Average: 3.8 ng/ml and 0.008 ∞M
[8]; pre-dose D21, individual patients
  Blood plasma level of monepantel: 4.34 ng/mL and 3.16 ng/mL
[8]; pre-dose D28, average of patients
  Blood plasma level of monepantel, Average: 3.8 ng/ml and 0.008 ∞M
[8]; pre-dose D28, individual patients
  Blood plasma level of monepantel: 4.65 ng/mL and 2.96 ng/mL
[8]; plasma, oral, 5 mg/kg bw, 0.25 h, average of patients, read-out: Blood plasma level of monepantel, Average
  concentration at 0.25 h: 4.7 ng/mL
[8]; plasma, oral, 5 mg/kg bw, 0.5 h, average of patients, read-out: Blood plasma level of monepantel, Average
  concentration at 0.5 h: 24.3 ng/mL
[8]; plasma, oral, 5 mg/kg bw, 1 h, average of patients, read-out: Blood plasma level of monepantel, Average
  concentration at 1 h: 64.8 ng/mL
[8]; plasma, oral, 5 mg/kg bw, 2 h, average of patients, read-out: Blood plasma level of monepantel, Average
  concentration at 2 h: 141 ng/mL
[8]; plasma, oral, 5 mg/kg bw, 2 h, individual patients, read-out: Blood plasma level of monepantel
  concentration at 2 h: 183 ng/mL
[8]; plasma, oral, 5 mg/kg bw, 4 h, average of patients, read-out: Blood plasma level of monepantel, Average
  concentration at 4 h: 167 ng/mL
[8]; plasma, oral, 5 mg/kg bw, 8 h, average of patients, read-out: Blood plasma level of monepantel, Average
  concentration at 8 h: 68.5 ng/mL
[8]; plasma, oral, 5 mg/kg bw, 12 h, average of patients, read-out: Blood plasma level of monepantel, Average
  concentration at 12 h: 30.5 ng/mL
[8]; plasma, oral, 5 mg/kg bw, 24 h, average of patients, read-out: Blood plasma level of monepantel, Average
  concentration at 24 h: 14.3 ng/mL
[9]; PA02, PA06 and PA07, after seven days of treatment
  reduction of PBMC RPS6KB1 phosphorylation levels relative to pre-treatment: 85.6%
[9]; [14]
  reduction of PBMC RPS6KB1 phosphorylation levels relative to pre-treatment: 27.3%
[9]; [15]
  reduction of PBMC RPS6KB1 phosphorylation levels relative to pre-treatment: 28.6%
[9]; [16]
  reduction of PBMC RPS6KB1 phosphorylation levels relative to pre-treatment: 81.2%
[9]; four patients
  mTOR signalling (decreased RPS6KB1 phosphorylation in PBMCs): inhibited in all four patients
[10]; PA02, after seven days of treatment
  reduction of PBMC EIF-4EBP1 phosphorylation levels relative to pre-treatment: 85.6%
[10]; [14]
  reduction of PBMC EIF-4EBP1 phosphorylation levels relative to pre-treatment: 38.5%
[10]; [15]
  reduction of PBMC EIF-4EBP1 phosphorylation levels relative to pre-treatment: 96.6%
[10]; [16]
  reduction of PBMC EIF-4EBP1 phosphorylation levels relative to pre-treatment: 34.4%
cancer; patient PA07
  RECIST1.1 response by CT: progressive disease
cancer; patients PA02, PA04 and PA06
  RECIST1.1 response by CT: stable disease
SARS-CoV-2 [11]
  SARS-CoV-2 infectivity (TCID50): reduced SARS-CoV-2 infectivity
